One molecule from patent US20030203969A1, “Pharmaceutically active aromatic guanylhydrazones” (priority 2000, published 2003) can be followed below.

pIC50: −log10 of the molar value.

The subject of one data set is BCBL-1 cells. The experiment in a line: Compound toxicity in BCBL-1 cells (Cell Titer Aqueous One). Type of data set: cell-based, human. The conditions noted are these: read-out: TC50 (the source's name). How it is done:
(§1) The human BCBL-1 cell line is available through the AIDS Reference and Reagent Program (Cat.No. 3233). This cell line was derived from a body cavity-based lymphoma latently infected with HHV-8. Culturing these cells in the presence of phorbol ester induces a lytic infection cycle, resulting in the release of viral particles into the medium. Compound efficacy in this proposed assay is determined using TaqMan PCR technology, and compound toxicity is measured by addition of Promega's Cell Titer Aqueous One Solution (metabolic dye).
12. Duplicate plates will be set up plating media in place of TPA for evaluation of compound toxicity.
12. Twenty microliters of Cell Titer Aqueous One Solution (Promega) will be added to each well of the toxicity plates. Plates will be incubated at 37° C. in a humidified CO2 incubator for 4 hours or until sufficient color development has occurred. Plates will be read on a VMax microtiter plate reader at a wavelength of 490/650 nm. Toxicity of the test compound will be determined by comparing the optical density of test wells with that of control wells.

The subject of a further data set is Vero cells. On the procedure: A cytoprotection assay procedure using MTS is employed to evaluate compounds for antiviral activity against Respiratory Syncytial Virus (Long) in Vero (African green monkey, ATCC Cat. No. CCL-81) cells. The cells are pre-grown overnight at 37° C. (2×10^4/well in 96 well tissue culture plates) with 10% fetal Bovine serum containing Minimum Essential Medium. The positive control for the assay is Interferon-Gamma/Ribavirin. The infection medium contains reduced serum levels (2% FBS).
Using half log dilutions with high test starting at 100 μg/ml the drug dilutions are made and added to triplicate cultures in 0.1 ml volume and pre-titrated virus suspension is also added in 0.1 ml volume. […] CPE inhibition is determined by dye uptake procedure (Celltiter-MTS). […] The amount of soluble formazan produced by cellular reduction of the MTS is measured by the absorbance at 490 nm. The quantity of formazan product as measured by the amount of 490 nm absorbance is directly proportional to the number of living cells in the culture thus allowing the rapid quantitative analysis of the inhibition of virus-induced cell killing by the test substances. […]
The inhibitory drug concentration which reduces the viral replication by 95% (IC95) and the minimum drug concentration which inhibits cell growth by 95% (TC95) are calculated by using a regression analysis program for semilog curve fitting. […]

The subject of another data set is HHV8. In words: HHV-8 replication in TPA-induced BCBL-1 cells (TaqMan PCR). Type of data set: cell-based, Human herpesvirus 8. On the procedure:
as §1
7. BCBL-1 cells will be counted by the trypan blue dye exclusion method, and the cell count/ml will be determined. Cells will be pelleted by centrifugation and washed once with PBS to minimize the basal level of virus released from untreated cells which spontaneously enter the lytic cycle and release virus.
8. Cells will be resuspended in fresh media and adjusted to the appropriate cell density. Cells will then be plated in the interior wells of 96-well round-bottom microtiter plates in a volume of 50 μl per well.
9. […]
11. A standard curve prepared from known copy numbers of DNA isolated from BCBL-1 cells and amplified will be run with each plate in order to quantitate the DNA copy number in each original sample. The efficacy of the compound will be determined by comparing DNA copy numbers from test wells with those of control wells.

Regarding `CC(=NNC(=N)N)c1cc(NC(=O)CCCCCCCCC(=O)Nc2cc(C(C)=NNC(=N)N)cc(C(C)=NNC(=N)N)c2)cc(C(C)=NNC(=N)N)c1` [Compound 4, N,N′-bis (3,5-diacetylphenyl) decane diamide tetrakis (amidinohydrazone)], the figures for the CC50 in the data set with BCBL-1 cells and in the data set with Vero cells were 78.9 µM and 8.68 µM, respectively. The “TC95” value in the data set with Vero cells was 30.20 µM. For the same molecule, the Comments entry in the data set with HHV8 (HHV8, BCBL-1 cells) is “Active”. Besides, the pIC50 (usually the negative decadic logarithm of the IC50, by convention in mol/L) in the data set with HHV8 (chronically HHV8-infected BCBL-1 cells) was 5.64.
